According to publication PMC4884932, “Selective brain penetrable Nurr1 transactivator for treating Parkinson's disease” (Oncotarget, 2016):

Experiments:
primary VMB neurons = test: Nurr1 downstream gene expression in VMB neurons (real time PCR); type: cell-based, mouse; details: HX531 100nM with 1nM IRX4204
Experimental: (§1) Ventral midbrain (VMB) from E13.5-14.5 C57BL/6 mouse embryos were dissected, triturated and plated on poly-D-lysine coated 12 well plates or glass coverslips with the serum-free chemically-defined Neurobasal medium, supplemented with 2% B27, 0.5mM L-glutamine, 50I.U./ml penicillin and 50μg/ml streptomycin (Gibco-BRL). […] For each time point, cells were washed once with phosphate buffered saline and fixed with 4% paraformaldehyde for TH immunofluorescent staining. For cell counting, 10 frames were randomly captured from each well using a Leica fluorescent microscope and a minimum of four replicates for each dose and each time point were analyzed for each experiment.
Total RNA from VMB neurons or rat substantia nigra were isolated using the RNeasy Mini Kit from Qiagen (Valencia, CA) and 1μg of total RNA was reverse transcribed using SuperScript III first-strand synthesis supermix for qRT-PCR from Invitrogen (Carlsbad, CA) according to the manufacturer's instruction. Quantitative RT-PCR was performed using Maxima SYBR Green master mix (Fermentas) in ABI Prism 7900HT in four replicates with primers amplifying the target genes. Expression level of actin was used as an internal control. Data were normalized using the 2^−ΔΔCt method. Levels of target gene mRNAs were expressed relative to those in vehicle control groups and plotted in GraphPad Prism.

[1] = test system: tyrosine hydroxylase (TH)-positive DA neurons; test: DA neuron survival in primary ventral midbrain (VMB) culture; type: cell-based, mouse; details: co-treatment with IRX4204
Experimental: as §1

## CN1c2ccc([N+](=O)[O-])cc2N=C(c2ccc(C(=O)O)cc2)c2cc3c(cc21)C(C)(C)CCC3(C)C [HX531, reference compound]
Primary VMB neurons
  effect on IRX4204-mediated increased expression of DAT: totally abolished
  effect on IRX4204-mediated increased expression of DDC: totally abolished
[1]
  effect on IRX4204-promoted survival of TH-positive DA neurons: completely blocked
